In BindingDB's records for doi:10.3109/14756366.2011.637202 (Agri Ibrahim Cecen University, 2012):

Experiments:
Assay in all cases: Esterase Activity Assay
[1] = biological target: Carbonic anhydrase 4 (Homo sapiens, UniProt P22748)
[2] = biological target: Carbonic anhydrase 6 (Homo sapiens, UniProt P23280)
[3] = biological target: Carbonic anhydrase 2 (Homo sapiens, UniProt P00918)
[4] = biological target: Carbonic anhydrase 1 (Homo sapiens, UniProt P00915)
Chain of Carbonic anhydrase 1 (P00915 whole entry): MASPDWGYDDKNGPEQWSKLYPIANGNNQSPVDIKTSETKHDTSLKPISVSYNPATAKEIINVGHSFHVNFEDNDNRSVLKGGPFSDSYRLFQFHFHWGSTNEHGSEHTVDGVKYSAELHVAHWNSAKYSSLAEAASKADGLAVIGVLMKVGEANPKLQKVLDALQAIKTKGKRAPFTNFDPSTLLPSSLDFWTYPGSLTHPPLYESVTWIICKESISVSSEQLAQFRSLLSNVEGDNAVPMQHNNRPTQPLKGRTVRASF

Chain of Carbonic anhydrase 4 (P22748 whole entry): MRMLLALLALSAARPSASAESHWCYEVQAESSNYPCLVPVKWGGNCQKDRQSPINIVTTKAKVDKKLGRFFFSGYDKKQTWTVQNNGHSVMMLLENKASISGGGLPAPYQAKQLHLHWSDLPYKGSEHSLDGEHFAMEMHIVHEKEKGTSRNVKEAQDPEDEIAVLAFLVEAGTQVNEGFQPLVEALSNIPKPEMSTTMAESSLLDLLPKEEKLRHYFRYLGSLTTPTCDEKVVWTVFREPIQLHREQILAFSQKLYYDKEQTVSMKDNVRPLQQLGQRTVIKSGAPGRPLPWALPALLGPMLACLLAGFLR
Chain of Carbonic anhydrase 6 (P23280 whole entry): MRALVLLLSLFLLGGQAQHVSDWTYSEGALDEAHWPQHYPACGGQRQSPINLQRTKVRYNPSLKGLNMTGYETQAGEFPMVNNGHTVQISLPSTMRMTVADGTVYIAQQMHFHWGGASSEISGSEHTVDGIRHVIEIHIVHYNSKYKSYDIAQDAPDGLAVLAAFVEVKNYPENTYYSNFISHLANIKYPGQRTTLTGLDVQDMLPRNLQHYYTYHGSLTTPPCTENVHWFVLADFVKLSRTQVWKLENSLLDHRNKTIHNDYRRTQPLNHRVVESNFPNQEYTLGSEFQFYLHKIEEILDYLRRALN

| Ki [1] | Ki [2] | Ki [3] | Ki [4] | SMILES |
| --- | --- | --- | --- | --- |
| 8.14 µM | 12.1 µM | 6.45 µM | 79.1 µM | COc1cc(C=O)ccc1OS(C)(=O)=O [4-Formyl-2-methoxyphenyl methanesulfonate (15)] |
| 15.4 µM | 105 µM | 8.7 µM | 27.4 µM | CS(=O)(=O)Oc1ccccc1 [Phenylmethanesulfonate (4)] |
| 3.56 µM | 217 µM | 2.98 µM |  | COc1ccccc1O [1-Hydroxy-2-methoxybenzene] |
| 45.1 µM | 458 µM | 35.4 µM | 478 µM | CS(=O)(=O)Oc1cccc(OS(C)(=O)=O)c1OS(C)(=O)=O [Benzene-1,2,3-triyltrimethanesulfonate (11)] |
| 9.12 µM | 28.4 µM | 4.23 µM | 22.1 µM | CS(=O)(=O)Oc1ccc(OS(C)(=O)=O)cc1 [1,4-Phenylene dimethanesulfonate (6)] |
| 26.5 µM | 162 µM | 12.2 µM | 48.5 µM | CS(=O)(=O)Oc1ccc(-c2ccccc2)cc1 [Biphenyl-4-ylmethanesulfonate (5)] |
| 41.6 µM | 313 µM | 28.5 µM | 196 µM | CS(=O)(=O)Oc1ccccc1OS(C)(=O)=O [1,2-Phenylenedimethanesulfonate (13)] |
| 0.49 µM | 6.83 µM | 0.52 µM |  | Oc1cccc(O)c1O |

| SMILES | Ki [1] | Ki [2] | Ki [3] | Ki [4] |
| --- | --- | --- | --- | --- |
| Oc1ccc(-c2ccccc2)cc1 [4-Hydroxybiphenyl] | 12.3 µM | 85 µM | 7.41 µM | 19.5 µM |
| Oc1ccccc1 | 9.7 µM |  | 5.6 µM |  |
